Molecules are shown by their SMILES.

The subject of one series is P. falciparum NF54. The experiment in a line: In vitro [3H]hypoxanthine incorporation assay, P. falciparum NF54. The note with it: 16 h + 8 h incubation; read-out: IC50 (mean ± SD) for P. falciparum NF54 (n = 3). The class given is cell-based, Plasmodium falciparum. The method, then: Human erythrocytes served as the host cells. In vitro antimalarial activity was measured using the [^3H]hypoxanthine incorporation assay ([36]) with strain NF54 of P. falciparum (obtained from Hoffmann-LaRoche Ltd.). The compounds were dissolved in dimethyl sulfoxide (DMSO) at a concentration of 10 mM, diluted in hypoxanthine-free culture medium, and titrated in duplicate over a 64-fold range in 96-well plates. […] The parasites were harvested onto glass fiber filters, and radioactivity was measured using a BetaPlate liquid scintillation counter (Wallac, Zurich, Switzerland). All assays were repeated at least three times. The results were recorded and expressed as a percentage of the untreated controls. […] In addition, for the PK-PD analysis of KAE609, an IC99 value was determined by transforming the data from a scintillation counter (Anscombe transformation) to account for Poissonian measurement error. […] Each of the three replicates was performed on a distinct 96-well plate. This has been accounted for in the fitting procedure by means of a Bayesian hierarchical model. The software used for parameter inference was Stan ([37]).

The subject of series [1] is P. berghei GFP ANKA PbGFPCON. The experiment in a line: In vitro (ex vivo) P. berghei maturation assay. The class given is cell-based, Plasmodium berghei. The note with it: 16 h + 8 h incubation; read-out: IC50 (mean ± SD) for P. berghei GFP ANKA PbGFPCON (n = 3). The method, then:
For the in vitro (ex vivo) P. berghei maturation assays ([38]), heparinized blood from infected mice (P. berghei GFP ANKA malaria strain PbGFPCON, a donation from A. P. Waters and C. J. Janse, Leiden University, Leiden, the Netherlands) ([39]) was washed with 9 ml of hypoxanthine-free culture medium and diluted with hypoxanthine-free culture medium and red blood cells (RBCs) from uninfected mice to a hematocrit of 5% and a parasitemia of 0.3%. Serial compound dilutions were prepared in DMSO and distributed as described above. The infected erythrocytes (0.3% final parasitemia and 2.5% final hematocrit) were added into the wells. After the plates were incubated for 16 h, 0.25 μCi of [^3H]hypoxanthine was added per well, and the plates were incubated for an additional 8 h. The parasites were harvested, and the in vitro (ex vivo) P. berghei IC50, IC90, and IC99 values were determined as described above.

The nature of series [2]: In vivo PK after single p.o. and i.v. dosing in CD-1 mice. Further details: species or system female CD-1 mice. Particulars: CD-1 mice. How it is done:
The Institutional Animal Care and Use Committee (IACUC) of the Novartis Institute for Tropical Diseases (NITD), registered with the Agri-Food and Veterinary authority (AVA), Government of Singapore, reviewed and approved all animal experimental protocols. […] The mice were allowed to acclimate before the initiation of the experiments. Feed and water were given ad libitum. […] The blood samples from the mice were collected at 0.02 (for i.v. only), 0.08, 0.25, 0.5, 1, 2, 4, 8, 16, and 24 h postdosing. The dose proportionality studies were conducted with KAE609. […] Additional samples were collected at 32 h and 48 h postdose for the 1- and 5-mg/kg dose groups and up to 72 h postdose for the 100-mg/kg dose group. Groups of three mice were used for each time point. Blood was centrifuged at 13,000 rpm for 7 min at 4°C, and plasma was harvested and stored at -20°C until analysis. […] After vortexing and centrifuging the mixture, the supernatant was removed and 5 μl of sample analyzed. Analyte quantitation was performed by high-performance liquid chromatography coupled with tandem mass spectrometry (LC-MS/MS). […] Instrument control and data acquisition were performed using the Applied Biosystems software Analyst 1.4.2. […] Multiple-reaction monitoring (MRM) was combined with optimized MS parameters to maximize detection specificity and sensitivity. The most intense MRM transitions [338.3/295.1 for (+)-1, 370.1/327.0 for (+)-2, 370.0/326.9 for (+)-3, 354.1/310.8 for (+)-4, 354.1/311.2 for (+)-5, 372.1/329.1 for (+)-6, 388.0/331.8 for (+)-7, 372.1/316.1 for (-)-6, and 388/332 for (-)-7] were used for quantitation. Most compounds were analyzed using electrospray ionization in the negative mode, except (+)-1, which was analyzed using positive mode. The recovery of the compounds from plasma was good and consistent across the concentration range studied. The lower limits of quantification for different compounds ranged from 1.3 to 70 ng/ml in plasma. A calibration curve was freshly prepared and analyzed with every set of study samples. Intraday variability was established with triplicate quality control samples at three concentration levels. The results were accepted if relative standard deviation was <15%. The mean values of the compound concentrations in plasma were obtained from three animals at each time point and plotted against time to generate concentration-time profiles. […] The oral bioavailability (F) was calculated as the ratio between the area under the concentration-time curve from 0 to infinity (AUC0-∞) following oral administration and the AUC0-∞ following intravenous administration corrected for dose (F = […].).

Series [3] deals with P. berghei GFP ANKA malaria strain PbGFPCON. The experiment in a line: Dose-response efficacy in the P. berghei malaria mouse model. The class given is in vivo, female NMRI mice. From the text:
All in vivo studies conducted at the Swiss Tropical and Public Health Institute (TPH) adhered to local and national regulations of laboratory animal welfare in Switzerland (permission no. 1731). For in vivo efficacy, female (specific-pathogen-free) […] (NMRI) mice were obtained from Janvier, Le Genest-Saint-Isle, France. Only mice without visible signs of disease were used for the study. Standard laboratory conditions were adopted for husbandry. In vivo antimalarial activity was assessed using groups of five female NMRI mice (20 to 22 g) intravenously infected on day zero with 2 × 10^7 erythrocytes parasitized with P. berghei GFP ANKA malaria strain PbGFPCON (a donation from A. P. Waters and C. J. Janse, Leiden University) ([39]). Untreated control mice typically died between day six and day seven postinfection. Experimental compounds were formulated in 10% ethanol, 30% PEG 400, and 60% of 10% vitamin E TPGS and were administered orally in a volume of 10 ml/kg. Dose-response efficacy studies were conducted for each spiroindolone analog. Doses of 2.5, 5, 10, 30, and 100 mg/kg were administered to groups of 5 mice each as a single dose at 24 h postinfection. Parasitemia, expressed as parasitized red blood cells (pRBCs) of >100 RBCs, was determined 72 h postinfection using standard flow cytometry techniques ([39]).
Data analysis was done using nonlinear mixed-effect modeling (NONMEM version VI 2.0), which analyzed the PD data from multiple dose groups obtained simultaneously from different experiments. Within NONMEM, first-order conditional estimation (FOCE) was the method used ([40]). The log-transformed dose and level of parasitemia were used for analysis. For each compound, a dose-response model was built, and the ED90 (effective dose lowering 90% of parasitemia) values were determined using equation 1 ([41]), where P is the parasitemia measured at any given dose, Pmax is the maximum level of parasitemia, Pmin is the minimum level of parasitemia, EZ50 is the dose required to produce 50% of the maximal effect, s is the Hill slope describing the steepness of the curve, and x is the dose (in mg/kg). 1 P=Pmin +{[Pmax−Pmin]/[1+10^(logEZ50−log x)×s]}

A short description of series [4]: Parallel artificial membrane permeability assay (PAMPA). Type of series: in vitro ADME. Particulars: % fraction absorbed. From the text:
(§1) page 5: Running title: PreclinicalPK -PD of antimalarials 73 to high through put form at using in- house standard assa y protocols that are described in the 74 literature. 75 (a)HT-Equilibrium solubilit y at pH 6.8( 1); (b)Parallel Artificial Membrane P ermeability Assa y 76 expressed in % fraction absorbed (FA) ( 2,3 ); (c)Apparent permeability from apical to […] 78 tested; (d)intrinsic clearance in mouse liver micro somes ex pressed as µ L/ min/mg protein, in 79 the presen ce of liver enzym es ( 6); (e)Mous e plasm a protein binding using rapid equilibrium […] 81 82 83 84 85 86 87 88 89 90 91 92 93 94 95 96 97 98 5

A further series deals with Caco-2 cells. Briefly: Caco-2 permeability. The class given is in vitro ADME. The note with it: apical to basolateral.
Description: as §1
A general note: Caco-2 cells form a polarised layer with tight junctions and transporters.

The nature of series [5]: Intrinsic clearance in mouse liver microsomes. Particulars: per mg protein. Type of series: in vitro ADME.
Description: as §1
(Microsomes from liver hold many membrane-bound enzymes, among them those of drug oxidation.)

The nature of series [6]: Mouse plasma protein binding, rapid equilibrium dialysis. The class given is in vitro ADME.
Description: as §1

The mark [7] stands for this setting: sigmoid dose-response model, single oral doses 24 h postinfection, parasitemia 72 h postinfection.

Take `C[C@H]1Cc2c([nH]c3ccccc23)[C@@]2(N1)C(=O)Nc1ccc(Cl)cc12` [(+)-1]: the IC50 (commonly the concentration needed to halve the response being measured) with P. falciparum NF54 stood at 13 ± 2.2 nM. Also, the IC50 in series [1] worked out at 242 ± 124 nM. In series [2] (i.v. 5 mg/kg), the CL worked out at 49.7 mL/min/kg, the Vss amounted to 0.9 L/kg and the “t1/2 (i.v.)” value worked out at 24 min. In series [2] (oral 25 mg/kg vs i.v. 5 mg/kg), the “F (oral bioavailability)” value came to 13%. In addition, in series [2] (single oral dose 25 mg/kg), the “AUC0–24” value turned out to be 1300 ng·h/mL; the Tmax – broadly, the time from dosing to the highest level – worked out at 15 min; the “t1/2 (oral)” value amounted to 42 min. For the same compound, the Cmax – broadly, the peak of the concentration-time curve – in series [2] (single oral dose 25 mg/kg, plasma) stood at 1200 ng/mL. The Hill slope (in general, the slope factor of the fitted curve) in series [3] (dose vs parasitemia model) is −3.1. Further, in series [3] (setting [7]), the “Pmax (maximum parasitemia)” value is reported as 33.11 and the “Pmin (minimum parasitemia)” value turned out to be 0.03. Moreover, the “ED90 (effective dose causing a 90% reduction in parasitemia)” value in series [3] (single oral dose 24 h postinfection, parasitemia 72 h postinfection) was found to be 15.3 mg/kg. Besides, the “PAMPA %FA” value in series [4] is reported as 97%. In addition, the “Caco-2 Papp (A-B)” value in the series with Caco-2 cells is given as 7.19 10-6 cm/sec. Further, in series [5], the “Hepatic CLint in mouse liver microsomes” value is 770 µL/min/mg. Further, the “Mouse PPB” value in series [6] was found to be 98.4%.

For the origin of these results see paper PMC4335872, “Pharmacokinetic-Pharmacodynamic Analysis of Spiroindolone Analogs and KAE609 in a Murine Malaria Model” (Antimicrobial Agents and Chemotherapy, 2015).
